The results in this text go back to PubChem BioAssay (NCI).

Common to all, as to test: NCI tumour cell line growth inhibition, 48 h
Assay [1] deals with UACC-62 melanoma.
Assay [2] relates to CCRF-CEM leukemia.
In assay [3] the test system is OVCAR-5 ovarian.
The subject of assay [4] is NCI-H226 lung.
For assay [5], the system named is HT29 colon.
For assay [6], the system named is M14 melanoma.
The test system of assay [7] is EKVX NSCLC.
In assay [8] the test system is SK-MEL-2 melanoma.
For assay [9], the system named is TK-10 renal.
The test system of assay [10] is HCT-15 colon.

Where “and” joins values, the source holds several entries; their conditions need not be identical. Identical values can stand only once.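 Where inhibition never reached the appropriate level, the endpoint shown equals the highest concentration tested. Otherwise, values were interpolated linearly from a five-concentration, 48-hour dose response in 96-well plates. GI50: concentration for 50% inhibition of growth. TGI: concentration producing complete growth inhibition.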 Where only a bound is given, the exact number is not on record here.

Turning to `O=C(CO)CC(=O)C(=O)Nc1ccccc1`, the TGI in assay [1], in assay [2], in [3], in assay [4], in assay [5] and in assay [6] was > 100 µM in each case. Further, the TGI in assay [7], in assay [8], in assay [9] and in assay [10] was > 100 µM each time.

As to `C/C(=N/Nc1nc2ccccc2n1C)c1ccccn1`, the GI50 in assay [1] is 0.14 µM; in assay [2], 0.0252 µM; in [3], 0.243 µM; in [4] it was 0.0584 µM; in [5] it was 0.044 µM; in assay [6] it was 0.0489 µM. Further, the GI50 in assay [7] was 0.0418 µM; in assay [8] it was 0.706 µM; in assay [9] it was 0.44 µM; in assay [10], 0.0171 µM. Besides, the TGI in [1] was 0.793 µM; in assay [3], 39.7 µM; in assay [4] it was 4.69 µM; in assay [5], 24.4 µM; in assay [6] it was 0.285 µM; in assay [7], 13.5 µM. Moreover, the TGI was determined as 22.3 µM in assay [8], 32.6 µM in assay [9] and 27.9 µM in assay [10].

Regarding `COc1ccc(/C=C\c2cc(OC)c(OC)c(OC)c2)cc1OC(=O)c1cccc(Cn2cc(CCOC(=O)[C@H](N)Cc3cn(C)c4ccccc34)nn2)c1`, the GI50 was < 0.01 µM in assay [1]; < 0.01 µM in [2]; 0.0886 µM in [3]; < 0.0169 µM in assay [4]; 0.379 µM in assay [5]; < 0.01 µM in assay [6]. Besides, the GI50 is 0.0538 µM in assay [7], 15.4 µM in [8], 25 µM in assay [9] and < 0.01 µM in assay [10]. Also, the TGI in assay [1] is 24.2 µM; in assay [2], > 100 µM; in assay [3], > 100 µM; in assay [4] it was 38.9 µM; in assay [5], > 20.9 µM; in [6] it was 16.9 µM. For the same compound, the TGI in assay [7] is > 100 µM; in assay [8] it was > 83.5 µM; in [9] it was > 100 µM; in assay [10], > 44 µM.

With `CCOC(=O)c1[nH]c(Br)c(-c2ccc(Br)cc2)c1Br`, the GI50 in [1] is 0.362 µM; in assay [2] it was 0.278 µM; in assay [3], 5.77 µM; in assay [7] it was 0.852 µM; in assay [9], 2.34 µM; in assay [10], 0.25 µM. The TGI in assay [2] is 1.11 µM; in assay [3] it was > 100 µM; in assay [4], 6.88 µM; in assay [5], 1.32 µM and 1.62 µM; in assay [6], 17.9 µM; in [7] it was 17.3 µM. The TGI in [8] is 2.53 µM; in [9] it was 9.99 µM and 11.3 µM; in [10] it was > 100 µM.

Consider `N#CC(C(=O)/C(=N/N)C(C#N)c1ccccc1)c1ccccc1` (centres undefined), for which the TGI in assay [1], in assay [2], in [3], in assay [4], in assay [5] and in assay [6] was > 100 µM throughout. Also, the TGI in assay [7], in assay [8], in [9] and in assay [10] was > 100 µM in each case.

For the compound `Nc1ncnc2c1nc(Cl)n2C1OC2COP(=O)(O)OC2C1O` (centres undefined), the TGI in assay [1] is > 300 µM; in assay [2], > 300 µM; in assay [3] it was > 283 µM; in assay [4], > 155 µM; in assay [5], > 300 µM; in assay [6], > 300 µM. Besides, the TGI in assay [7] was > 300 µM; in [8], > 300 µM; in assay [9] it was > 222 µM; in assay [10], > 300 µM.

Consider `COc1cc2c3c(n(CCCN)c(=O)c2cc1OC)-c1cc2c(cc1/C3=C\CCN)OCO2`, for which the GI50 in assay [1] is 1.75 µM; in assay [2], 0.196 µM; in [3], 4.29 µM; in [4] it was 1.45 µM; in [5], 0.373 µM; in assay [6], 12.3 µM. The GI50 is 5.07 µM in [7], 6.57 µM in assay [8], 4.92 µM in [9] and 27 µM in assay [10]. The TGI in assay [1] was 4.98 µM; in [2], 36.5 µM; in [3], > 26.1 µM; in [4], 5.9 µM; in assay [5] it was 10.6 µM; in [6], 35.7 µM. Besides, the TGI in [7] was 15.9 µM; in [8], 14.6 µM; in [9] it was > 28 µM; in [10], > 100 µM.

On to `O=C1CCCCCCCC/C=C\CC(c2ccco2)O1` (centres undefined), for which the GI50 in [1] was 14.6 µM; in assay [2], 36 µM; in assay [3], 22.5 µM; in assay [4], 21 µM; in assay [5], 27 µM; in assay [6], 24.6 µM. The GI50 in assay [7] was 26.7 µM; in assay [8], 21.6 µM; in assay [9], > 100 µM; in assay [10], 23.5 µM. Besides, the TGI is 68.9 µM in assay [1]; > 100 µM in assay [2]; > 100 µM in assay [3]; 64.1 µM in assay [4]; 99.5 µM in [5]; 70.5 µM in [6]. Besides, the TGI is 75.7 µM in assay [7], 58.4 µM in [8], > 100 µM in assay [9] and 77.9 µM in assay [10].

For the compound `CC(=O)[C@@]1(O)CC[C@H]2[C@@H]3C[C@H](C)C4=CC(=O)CC[C@]4(C)[C@H]3[C@@H](O)C[C@@]21C`, the TGI in assay [1], in assay [2], in assay [3], in [4], in assay [5] and in [6] was > 100 µM in each case. The TGI in assay [7], in assay [8], in assay [9] and in assay [10] was > 100 µM in each case.
